Where a name gives a salt, the structure may show the parent alone.

In one assay the target is T1, LmjIPCS (inositol phosphorylceramide synthase from L. major) (Leishmania major, UniProt E9AFX2).
T1 sequence (E9AFX2 1-338): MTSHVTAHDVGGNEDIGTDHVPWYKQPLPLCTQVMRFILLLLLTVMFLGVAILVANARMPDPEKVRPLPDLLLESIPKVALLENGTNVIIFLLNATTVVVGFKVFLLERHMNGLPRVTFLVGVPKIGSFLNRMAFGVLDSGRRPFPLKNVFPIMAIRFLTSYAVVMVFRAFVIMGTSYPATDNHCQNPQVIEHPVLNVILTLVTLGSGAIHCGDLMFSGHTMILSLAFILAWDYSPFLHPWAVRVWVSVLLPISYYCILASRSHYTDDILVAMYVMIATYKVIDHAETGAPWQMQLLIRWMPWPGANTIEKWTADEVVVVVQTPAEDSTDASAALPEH
Kind of assay: biochemical. On the set-up: inhibition: dose or concentration left out as unconfirmed.
Conditions: not given
The assay is classed as biochemical.
Consider `CCN1CCN(C(=O)N[C@@H](C(=O)N[C@@H]2C(=O)N3[C@@H]2SC(C)(C)[C@@H]3C(=O)O)c2ccccc2)C(=O)C1=O` [PIPERACILLIN], for which the “20mM inhibition LmjIPCS” value is reported as 60%.
Take `CCN1CCCC(OC(=O)C(c2ccccc2)c2ccccc2)C1` (stereo not shown) [PIPERIDOLATE]: the “20mM inhibition LmjIPCS” value was 39%.
`Nc1ccc(C(=O)[O-])cc1.[K+]` [POTASSIUM p-AMINOBENZOATE]: the “20mM inhibition LmjIPCS” value was determined as 40%.
In the case of `CCCNC(C)C(=O)Nc1ccccc1C` (stereo not shown) [PRILOCAINE], the “20mM inhibition LmjIPCS” value is listed as 34%.
Regarding `COc1cc(NC(C)CCCN)c2ncccc2c1` (stereo not shown) [PRIMAQUINE], the “20mM inhibition LmjIPCS” value amounted to 69%.
Same read-out and setting: as for `COC(=O)[C@]1(C)CC[C@]2(C)CC[C@]3(C)C4=CC=C5C(=CC(=O)C(O)=C5C)[C@]4(C)CC[C@@]3(C)[C@@H]2C1` [PRISTIMERIN], the figure is 62%; as for `CC(=O)[C@H]1CC[C@H]2[C@@H]3CCC4=CC(=O)CC[C@]4(C)[C@H]3CC[C@]12C` [PROGESTERONE], 65%; as for `CCCNCC(O)COc1ccccc1C(=O)CCc1ccccc1` (stereo not shown) [PROPAFENONE], 61%.
Turning to `O=C1c2ccccc2C(=O)c2c(O)c(O)cc(O)c21` [PURPURIN], the “20mM inhibition LmjIPCS” value came to 35%.
For the compound `CCC1(CC)C(=O)C=CNC1=O` [PYRITHYLDIONE], the “20mM inhibition LmjIPCS” value is given as 52%.
Turning to `CCN(CC)CCCC(C)Nc1c2ccc(Cl)cc2nc2ccc(OC)cc12` (stereo not shown) [QUINACRINE], the “20mM inhibition LmjIPCS” value is 59%.
As to `C=C[C@H]1C[N@@]2CC[C@H]1C[C@@H]2[C@@H](O)c1ccnc2ccc(OC)cc12` [QUINIDINE], the “20mM inhibition LmjIPCS” value was 55%.
In the case of `CNC(C)C(O)c1ccccc1` (stereo not shown) [RACEPHEDRINE], the “20mM inhibition LmjIPCS” value is 41%.
For the compound `CC(NCCc1ccc(O)cc1)C(O)c1ccc(O)cc1` (stereo not shown) [RITODRINE], the “20mM inhibition LmjIPCS” value is listed as 58%.
Still for that read-out and setting: as for `O=C(/C=C/c1ccc(O)c(O)c1)O[C@H](Cc1ccc(O)c(O)c1)C(=O)O` [ROSMARINIC ACID], the figure is 58%.
As for `C=C(C)[C@H]1Cc2c(ccc3c2O[C@@H]2COc4cc(OC)c(OC)cc4[C@@H]2C3=O)O1` [ROTENONE], the “20mM inhibition LmjIPCS” value was 43%.

The assay is the same for the next values; noted with them: NINDS set screen, single concentration printed as 20mM.
Regarding `O=C1C[C@@H](c2ccccc2)Oc2cc(O)cc(O)c21` [PINOCEMBRIN], the “20mM inhibition LmjIPCS” value is given as 35%.
For `CC(=O)[C@H]1CC[C@H]2[C@@H]3CC=C4C[C@@H](O)CC[C@]4(C)[C@H]3CC[C@]12C` [PREGNENOLONE], the “20mM inhibition LmjIPCS” value is 52%.
Consider `CCCC(C(=O)OCCN(CC)CC)(c1ccccc1)c1ccccc1` [PROADIFEN], for which the “20mM inhibition LmjIPCS” value came to 36%.
On the same count and under the same terms, as for `CC(C)NCC(O)c1ccc2ccccc2c1` (stereo not shown) [PRONETALOL], the figure is 60%.
The same measure, in the same setting: as for `CC(C)[N+](C)(CCOC(=O)C1c2ccccc2Oc2ccccc21)C(C)C` [PROPANTHELINE BROMIDE], the figure is 35%.

The same assay, now with this note: NINDS set screen; read-out: inhibition LmjIPCS.
Usually inhibition stands for the relative decrease from the control value, in per cent. With `OC(CCN1CCCCC1)(c1ccccc1)c1ccccc1` [PRIDINOL], the inhibition came out at 27%.
For `CCCN(CCC)S(=O)(=O)c1ccc(C(=O)O)cc1` [PROBENECID], the inhibition came to 13%.
In the case of `NC(=O)c1cnccn1` [PYRAZINAMIDE], the inhibition is -17%.
`O=C1c2ccc(O)c(O)c2C(=O)c2c(O)ccc(O)c21` [QUINALIZARIN]: the inhibition was -2.7%.
Turning to `Cc1c(NC(C)C)c(=O)n(-c2ccccc2)n1C` [RAMIFENAZONE], the inhibition was 0.419%.
Consider `CC1=C(/C=C/C(C)=C/C=C/C(C)=C/CO)C(C)(C)CCC1` [RETINOL], for which the inhibition is 21%.
Consider `CCCCCCCCCCCCCCCC(=O)OC/C=C(C)/C=C/C=C(C)/C=C/C1=C(C)CCCC1(C)C` [RETINYL PALMITATE], for which the inhibition was determined as 18%.
Consider `CS(=O)(=O)c1ccc(C2=C(c3ccccc3)C(=O)OC2)cc1` [ROFECOXIB], for which the inhibition is -2%.
Turning to `Cn1c([N+](=O)[O-])cnc1COC(N)=O` [RONIDAZOLE], the inhibition was found to be 0.0172%.
The same measure, in the same setting: as for `CC(C)c1nc(N(C)S(C)(=O)=O)nc(-c2ccc(F)cc2)c1/C=C/[C@@H](O)C[C@@H](O)CC(=O)O` [ROSUVASTATIN], the figure is 12%.

Still in this assay, the particulars now being: read-out: 20mM inhibition LmjIPCS.
As to `C1CNCCN1` [PIPERAZINE], the inhibition at 20000 µM turned out to be 5.42%.
Same read-out and setting: as for `O=C(/C=C/C=C/c1ccc2c(c1)OCO2)N1CCCCC1` [PIPERINE], the figure is 13%; as for `COc1cc([C@@H]2c3cc4c(cc3[C@H](O)[C@H]3COC(=O)[C@H]23)OCO4)cc(OC)c1OC` [PODOFILOX], 21%; as for `C[n+]1ccccc1/C=N/O` [PRALIDOXIME MESYLATE], 9%.
Same read-out and setting: as for `CC(=O)OCC(=O)[C@@]1(O)CC[C@H]2[C@@H]3CCC4=CC(=O)C=C[C@]4(C)[C@H]3[C@@H](O)C[C@@]21C` [PREDNISOLONE ACETATE], the figure is 25%; as for `CC(C)C[C@H](CN)CC(=O)O` [PREGABALIN], 12%; as for `CCC1(c2ccccc2)C(=O)NCNC1=O` [PRIMIDONE], -1.2%.
As to `CC(C)(Sc1cc(C(C)(C)C)c(O)c(C(C)(C)C)c1)Sc1cc(C(C)(C)C)c(O)c(C(C)(C)C)c1` [PROBUCOL], the inhibition at 20000 µM stood at 25%.
As to `OC(CCN1CCCC1)(c1ccccc1)C1CCCCC1` (stereo not shown) [PROCYCLIDINE], the inhibition at 20000 µM was 22%.
Regarding `CCCN(CCC)C(=O)C(CCC(=O)O)NC(=O)c1ccccc1` (stereo not shown) [PROGLUMIDE], the inhibition at 20000 µM is 15%.
For `CN[C@@H](C)[C@@H](O)c1ccccc1` [PSEUDOEPHEDRINE], the inhibition at 20000 µM was 2.14%.
Same read-out and setting: as for `CN(C)C(=O)Oc1ccc[n+](C)c1` [PYRIDOSTIGMINE BROMIDE], the figure is -5.55%; as for `[O-][n+]1ccccc1S` [PYRITHIONE ZINC], 10%.
As for `O=c1c(O)c(-c2ccc(O)c(O)c2)oc2cc(O)cc(O)c12` [QUERCETIN], the inhibition at 20000 µM was determined as 3.45%.
With `C[C@@H]1O[C@@H](Oc2c(-c3ccc(O)c(O)c3)oc3cc(O)cc(O)c3c2=O)[C@H](O)[C@H](O)[C@H]1O` [QUERCITRIN], the inhibition at 20000 µM came to 6.42%.
The same measure, in the same setting: as for `O=C(O)c1cccnc1C(=O)O` [QUINOLINIC ACID], the figure is 5.51%; as for `CC(=O)OC/C=C(C)/C=C/C=C(C)/C=C/C1=C(C)CCCC1(C)C` [RETINYL ACETATE], 9%.
Regarding `CO[C@H]1/C=C/O[C@@]2(C)Oc3c(C)c(O)c4c(O)c(c(/C=N/N5CCN(C)CC5)c(O)c4c3C2=O)NC(=O)/C(C)=C\C=C\[C@H](C)[C@H](O)[C@@H](C)[C@@H](O)[C@@H](C)[C@H](OC(C)=O)[C@@H]1C` [RIFAMPIN], the inhibition at 20000 µM turned out to be 27%.
Still for that read-out and setting: as for `CO[C@H]1/C=C/O[C@@]2(C)Oc3c(C)c(O)c4c(O)c(c5c(nc6cc(C)ccn65)c4c3C2=O)NC(=O)/C(C)=C\C=C\[C@H](C)[C@H](O)[C@@H](C)[C@@H](O)[C@@H](C)[C@H](OC(C)=O)[C@@H]1C` [RIFAXIMIN], the figure is 6%; as for `O=C1C=CC(=C(c2ccc(O)cc2)c2ccc(O)cc2)C=C1` [ROSOLIC ACID], -11%.

Still in this assay, the particulars now being: read-out: inhibition LmjIPCS.
Turning to `CCc1ccc(CCOc2ccc(CC3SC(=O)NC3=O)cc2)nc1` (stereo not shown) [PIOGLITAZONE], the inhibition is 9%.
`CCn1cc(C(=O)O)c(=O)c2cnc(N3CCCC3)nc21` [PIROMIDIC ACID]: the inhibition came to 8.53%.
Regarding `CN1C(C(=O)Nc2ccccn2)=C(O)c2ccccc2S1(=O)=O` [PIROXICAM], the inhibition was 15%.
In the case of `CC[C@H](C)C(=O)O[C@H]1C[C@H](O)C=C2C=C[C@H](C)[C@H](CC[C@@H](O)C[C@@H](O)CC(=O)O)[C@H]21` [PRAVASTATIN], the inhibition was 28%.
Regarding `O=C(C1CCCCC1)N1CC(=O)N2CCc3ccccc3C2C1` (stereo not shown) [PRAZIQUANTEL], the inhibition was -3.78%.
`C[C@]12C=CC(=O)C=C1CC[C@@H]1[C@@H]2[C@@H](O)C[C@@]2(C)[C@H]1CC[C@]2(O)C(=O)CO` [PREDNISOLONE]: the inhibition was found to be 21%.
For `C[C@]12C=CC(=O)C=C1CC[C@@H]1[C@@H]2C(=O)C[C@@]2(C)[C@H]1CC[C@]2(O)C(=O)CO` [PREDNISONE], the inhibition is -4%.
The same measure, in the same setting: as for `CCN(CC)CCNC(=O)c1ccc(N)cc1` [PROCAINAMIDE], the figure is 19%; as for `COc1ccc(C[C@H](N)C(=O)N[C@H]2[C@@H](O)[C@H](n3cnc4c(N(C)C)ncnc43)O[C@@H]2CO)cc1` [PUROMYCIN], 20%; as for `COc1ccc(CN(CCN(C)C)c2ccccn2)cc1` [PYRILAMINE], 5.27%.
The same measure, in the same setting: as for `CNC(=C[N+](=O)[O-])NCCSCc1ccc(CN(C)C)o1` [RANITIDINE], the figure is 1.29%.
As to `COC(=O)[C@H]1[C@H]2C[C@H]3c4[nH]c5ccccc5c4CCN3C[C@H]2CC[C@@H]1O` [RAUWOLSCINE], the inhibition is 12%.
Take `Oc1cccc(O)c1` [RESORCINOL]: the inhibition stood at 1.29%.
Turning to `Oc1ccc(/C=C/c2cc(O)cc(O)c2)cc1` [RESVERATROL], the inhibition is -9%.
Consider `Cc1cc2nc3c(=O)[nH]c(=O)nc-3n(C[C@H](O)[C@H](O)[C@H](O)CO)c2cc1C` [RIBOFLAVIN], for which the inhibition worked out at 2.26%.

Still in this assay, the particulars now being: screening of NINDS set, sheet Screen 1; read-out: inhibition LmjIPCS.
In the case of `CCCc1cc(C(N)=S)ccn1` [PROTHIONAMIDE], the inhibition came to 9%.
On the same count and under the same terms, as for `CC(=O)Oc1cccc(O)c1` [RESORCINOL MONOACETATE], the figure is 4%; as for `COc1ccc(/C=C/c2cc(O)cc(O[C@@H]3O[C@H](CO)[C@@H](O)[C@H](O)[C@H]3O)c2)cc1O` [RHAPONTIN], 3%; as for `CN(CCOc1ccc(CC2SC(=O)NC2=O)cc1)c1ccccn1` (stereo not shown) [ROSIGLITAZONE], 2.64%.
